Results on 1 molecule are retold here after patent publication EP1147134B1, “NOVEL POTASSIUM CHANNELS AND GENES ENCODING THESE POTASSIUM CHANNELS” (NEUROSEARCH A/S, priority 1999, dated 2000).

The target in one assay is T1, KCNQ3/KCNQ4 (Homo sapiens, UniProt O43525+P56696).
T1 construct: A complete cDNA was assembled and cloned into the oocyte expression vector PTLN; expressed in transfected cells; host or cells: Xenopus oocytes co-injected with KCNQ3 and KCNQ4 cRNA
T1 sequence (P56696 1-695): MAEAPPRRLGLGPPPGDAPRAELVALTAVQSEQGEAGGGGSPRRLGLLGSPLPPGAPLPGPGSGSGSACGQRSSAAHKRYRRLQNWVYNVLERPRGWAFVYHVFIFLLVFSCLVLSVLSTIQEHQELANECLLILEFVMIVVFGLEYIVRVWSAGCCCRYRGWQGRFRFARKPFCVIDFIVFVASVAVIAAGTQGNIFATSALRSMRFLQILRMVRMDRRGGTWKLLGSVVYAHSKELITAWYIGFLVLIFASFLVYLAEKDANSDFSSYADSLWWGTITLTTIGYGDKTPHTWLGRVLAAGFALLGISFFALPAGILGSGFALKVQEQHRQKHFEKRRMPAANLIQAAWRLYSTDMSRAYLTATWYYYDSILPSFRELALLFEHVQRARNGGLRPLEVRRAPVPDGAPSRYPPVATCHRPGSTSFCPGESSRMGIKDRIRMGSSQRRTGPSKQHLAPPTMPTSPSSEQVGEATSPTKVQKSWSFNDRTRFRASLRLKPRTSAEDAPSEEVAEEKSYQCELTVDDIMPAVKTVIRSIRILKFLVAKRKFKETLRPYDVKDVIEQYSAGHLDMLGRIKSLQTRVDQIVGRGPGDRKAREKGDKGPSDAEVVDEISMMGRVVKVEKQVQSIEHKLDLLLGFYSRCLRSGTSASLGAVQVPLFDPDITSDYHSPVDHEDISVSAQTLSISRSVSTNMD
T1 sequence (O43525 1-872): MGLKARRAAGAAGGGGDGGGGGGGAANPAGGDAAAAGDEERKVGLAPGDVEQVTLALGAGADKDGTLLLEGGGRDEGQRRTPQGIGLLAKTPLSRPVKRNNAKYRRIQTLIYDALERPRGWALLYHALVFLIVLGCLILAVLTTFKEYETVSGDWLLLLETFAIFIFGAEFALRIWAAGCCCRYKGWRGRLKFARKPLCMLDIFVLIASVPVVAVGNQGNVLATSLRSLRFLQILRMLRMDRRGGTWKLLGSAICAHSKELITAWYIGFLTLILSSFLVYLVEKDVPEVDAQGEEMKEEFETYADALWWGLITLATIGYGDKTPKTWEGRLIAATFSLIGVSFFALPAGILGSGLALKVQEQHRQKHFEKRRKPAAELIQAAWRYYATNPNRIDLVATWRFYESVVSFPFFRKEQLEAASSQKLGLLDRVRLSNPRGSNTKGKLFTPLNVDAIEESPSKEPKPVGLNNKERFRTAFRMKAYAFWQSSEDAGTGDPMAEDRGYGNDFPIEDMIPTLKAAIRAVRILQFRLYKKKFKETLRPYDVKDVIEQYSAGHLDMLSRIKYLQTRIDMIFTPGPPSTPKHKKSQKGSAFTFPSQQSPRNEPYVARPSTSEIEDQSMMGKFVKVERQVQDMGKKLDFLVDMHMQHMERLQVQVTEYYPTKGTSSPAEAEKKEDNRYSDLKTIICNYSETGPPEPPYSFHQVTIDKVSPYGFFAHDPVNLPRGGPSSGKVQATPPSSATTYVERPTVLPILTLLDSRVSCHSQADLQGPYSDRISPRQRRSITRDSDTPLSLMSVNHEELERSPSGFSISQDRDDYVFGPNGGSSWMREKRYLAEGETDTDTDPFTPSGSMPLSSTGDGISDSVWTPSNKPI
Description: Two-electrode voltage clamp of Xenopus oocytes co-injected with KCNQ3 and KCNQ4 cRNA. Format: cell-based. The conditions noted are these: 200 µM Linopirdine in ND98, currents measured at +40 mV, cRNAs 1:1. On the procedure:
(§1) KCNQ4 was expressed in Xenopus oocytes and its activity was investigated by two-electrode voltage clamping.
(§2) After linearization of the KCNQ4-containing PTLN vector with Hpal, capped cRNA was transcribed in vitro using the mMessage mMachine cRNA synthesis kit (Ambion). Usually 5 - 15 ng of cRNA were injected into Xenopus oocytes previously isolated by manual defolliculation and short collagenase treatment. In co-expression experiments cRNAs were injected at a 1:1 ratio. Oocytes were kept at 17°C in modified Barth's solution (90 mM NaCl, 1 mM KCl, 0.41 mM CaCl2, 0.33 mM Ca(NO3)2, 0.82 mM MgSO4, 10 mM HEPES, 100 U penicillin-100 µg streptomycin/ml, pH 7.6).
(§3) Standard two-electrode voltage-clamp measurements were performed at room temperature 2-4 days after injection using a Turbotec 05 amplifier (npi instruments, Tamm, Germany) and pClamp 5.5 software (Axon Instruments). Currents were usually recorded in ND98 solution (see Table 2). Solutions for Na^+ / K^+ replacement experiments were prepared from an appropriate mixture of solution KD100 (100 mM KCl) and ND100 (100 mM NaCl) to yield the stated concentrations of Na^+ and K^+. Linopirdine (RBI, Natick, MA) was prepared as a 100 mM stock solution in DMSO and added to a final concentration of 200 µM to ND98.
For orientation: In two-electrode clamp one electrode senses voltage and the other passes current.

A further assay concerns KCNQ2/KCNQ3 channels. The conditions noted are these: concentration of 200 µM; cited from earlier work.
A further assay concerns the target T2, KCNQ4 (Homo sapiens, UniProt P56696).
T2 construct: A complete cDNA was assembled and cloned into the oocyte expression vector PTLN; expressed in transfected cells; host or cells: Xenopus oocytes injected with capped cRNA from the PTLN vector
T2 sequence (P56696 1-695): T1 sequence (P56696 1-695)
Description: Two-electrode voltage clamp of KCNQ4 currents in Xenopus oocytes. Format: cell-based. The procedure:
as §1, §2, §3

`O=C1N(c2ccccc2)c2ccccc2C1(Cc1ccncc1)Cc1ccncc1` [Linopirdine, 1,3-dihydro-1-phenyl-3,3-bis(4-pyridylmethyl)-2H-indol-2-one]: on KCNQ3/KCNQ4, the “inhibition with KCNQ3/KCNQ4 co-expression” value is listed as “≈ 75%”. The “inhibition of KCNQ2/KCNQ3 channels” value in the assay on KCNQ2/KCNQ3 channels is listed as “nearly completely inhibits”. Further, the inhibition (as a rule, the share of the control response that was lost under treatment) at 200 µM at KCNQ4 (200 µM Linopirdine in ND98, currents measured at +40 mV, Xenopus oocytes) was roughly 30%. Moreover, the “time until steady-state inhibition was reached, KCNQ4 currents” value at KCNQ4 (upon addition of 200 µM Linopirdine) is recorded as ~ 1 min.
